The values that follow come from paper PMC1281266, “Impact of Polychlorinated Biphenyls Contamination on Estrogenic Activity in Human Male Serum” (Environmental Health Perspectives, 2005).

Data set [1] relates to T47D.Luc cells. In words: Neutral red uptake cytotoxicity assay, 24-hr exposure. In kind it is cell-based, human. To be noted: lowest concentration causing a significant decrease of cell viability; 24-hr exposure Neutral Red uptake. As for the experimental part: We determined estrogenic activities of 17 prevalent PCB congeners using the ER-CALUX bioassay (BioDetection Systems) using the human breast carcinoma T47D.Luc cell line, stably transfected with pEREtataLuc construct ([Legler et al. 1999]; [Machala et al. 2004]). ER-mediated activity was also determined in the cells treated with either total serum hexane/diethyl ether extracts or with a fraction of POPs obtained by a consequent sulfuric acid/silica fractionation. […] We determined cytotoxicity of extracts or individual PCBs by a neutral red uptake assay after a 24-hr exposure.

The subject of data set [2] is rat uterus. Also on record: method as in Li et al. 1994. To be noted: at very high concentrations; ref Li et al. 1994; cited from earlier work.
Data set [3] relates to MCF-7 cells. More on the design: method as in Bonenfeld-Jorgensen et al. 2001. The conditions noted are these: ref Bonenfeld-Jorgensen et al. 2001; cited from earlier work.

For `Clc1cc(Cl)c(-c2cc(Cl)c(Cl)cc2Cl)cc1Cl` [PCB 153, 2,2′,4,4′,5,5′-Hexachlorobiphenyl], the “Cytotoxicity LOEC” value in data set [1] was determined as 20 µM. In data set [2], the “Estrogenicity in the acute 2-day immature rat uterine weight assay” value is on record as “estrogenic”. For the same compound, the “Antiestrogenic effects in reporter gene and cell proliferation MCF-7 assays” value in data set [3] is listed as “Antiestrogenic effects”.
